Key:
HDAC9 = target: T1, HDAC9 (Homo sapiens, UniProt Q9UKV0); experiment: HDAC inhibition assay (Caliper EZ reader, FAM-labeled peptide substrate); type: biochemical; conditions: recombinant human HDAC, 60 min at room temperature, 2 μM substrate
T1 construct: purchased BPS Bioscience
Method: (§1) All recombinant human HDACs were purchased from BPS Bioscience. The substrates, Broad Substrate A and Broad Substrate B (see International App. No. WO 2013/067391), were synthesized in-house. All other reagents were purchased from Sigma-Aldrich. […] Reactions were terminated by the addition of 1.5 μM of the known pan-HDAC inhibitor LBH-589 (panobinostat). […] The reactions were performed in duplicate for each sample.

HDAC3 = target: T2, HDAC3 (Homo sapiens, UniProt O15379); experiment: as above; type: biochemical; conditions: recombinant human HDAC, 60 min at room temperature, 2 μM substrate
T2 construct: purchased BPS Bioscience
T2 sequence (O15379 whole entry): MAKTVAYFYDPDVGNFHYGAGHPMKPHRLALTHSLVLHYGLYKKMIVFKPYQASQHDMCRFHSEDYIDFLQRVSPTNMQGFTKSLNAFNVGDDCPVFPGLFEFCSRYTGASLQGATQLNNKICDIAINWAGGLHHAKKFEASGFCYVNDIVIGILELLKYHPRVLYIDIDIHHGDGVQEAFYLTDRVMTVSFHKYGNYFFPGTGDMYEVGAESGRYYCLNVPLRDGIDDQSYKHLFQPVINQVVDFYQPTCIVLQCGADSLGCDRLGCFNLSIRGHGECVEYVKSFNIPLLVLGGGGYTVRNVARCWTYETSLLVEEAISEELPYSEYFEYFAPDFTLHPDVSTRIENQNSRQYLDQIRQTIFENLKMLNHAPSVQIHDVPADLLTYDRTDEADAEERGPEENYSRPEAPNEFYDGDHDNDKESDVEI
T2 sequence (Q9Y618 395-489 partner limits assumed): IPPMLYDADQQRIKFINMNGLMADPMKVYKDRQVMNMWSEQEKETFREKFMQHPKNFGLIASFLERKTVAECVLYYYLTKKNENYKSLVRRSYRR
Method: as §1

HDAC7 = target: T3, HDAC7 (Homo sapiens, UniProt Q8WUI4); experiment: as above; type: biochemical; conditions: recombinant human HDAC, 60 min at room temperature, 2 μM substrate
T3 construct: purchased BPS Bioscience
T3 sequence (Q8WUI4 1-952): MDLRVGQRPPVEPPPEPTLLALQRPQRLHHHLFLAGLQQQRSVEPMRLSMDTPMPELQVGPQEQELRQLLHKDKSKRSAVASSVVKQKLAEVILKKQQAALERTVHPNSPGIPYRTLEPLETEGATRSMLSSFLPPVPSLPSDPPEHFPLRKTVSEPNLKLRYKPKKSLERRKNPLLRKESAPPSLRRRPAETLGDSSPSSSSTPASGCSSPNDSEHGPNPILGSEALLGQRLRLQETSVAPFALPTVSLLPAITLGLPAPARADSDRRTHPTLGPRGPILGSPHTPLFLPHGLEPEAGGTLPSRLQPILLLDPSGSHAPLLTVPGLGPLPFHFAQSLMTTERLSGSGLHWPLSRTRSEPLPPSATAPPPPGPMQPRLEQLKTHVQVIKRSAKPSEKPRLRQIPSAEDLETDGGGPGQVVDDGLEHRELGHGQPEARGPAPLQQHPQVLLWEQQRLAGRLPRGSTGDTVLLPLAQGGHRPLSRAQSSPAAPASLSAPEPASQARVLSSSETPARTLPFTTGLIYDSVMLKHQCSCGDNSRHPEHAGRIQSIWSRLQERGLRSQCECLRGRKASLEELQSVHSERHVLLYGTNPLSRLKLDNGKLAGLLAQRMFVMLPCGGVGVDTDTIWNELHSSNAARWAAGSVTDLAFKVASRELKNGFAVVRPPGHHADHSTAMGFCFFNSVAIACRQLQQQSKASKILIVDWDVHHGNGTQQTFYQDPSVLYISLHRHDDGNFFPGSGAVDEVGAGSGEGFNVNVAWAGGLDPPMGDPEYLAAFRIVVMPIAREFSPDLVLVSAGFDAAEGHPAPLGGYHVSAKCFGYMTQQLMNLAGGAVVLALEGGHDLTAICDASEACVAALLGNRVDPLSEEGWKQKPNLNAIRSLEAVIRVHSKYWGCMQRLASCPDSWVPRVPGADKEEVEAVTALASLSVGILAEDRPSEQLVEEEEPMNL
Method: as §1

HDAC1 = target: T4, HDAC1 (Homo sapiens, UniProt Q13547); experiment: as above; type: biochemical; conditions: recombinant human HDAC, 60 min at room temperature, 2 μM substrate
T4 construct: purchased BPS Bioscience
T4 sequence (Q13547 whole entry): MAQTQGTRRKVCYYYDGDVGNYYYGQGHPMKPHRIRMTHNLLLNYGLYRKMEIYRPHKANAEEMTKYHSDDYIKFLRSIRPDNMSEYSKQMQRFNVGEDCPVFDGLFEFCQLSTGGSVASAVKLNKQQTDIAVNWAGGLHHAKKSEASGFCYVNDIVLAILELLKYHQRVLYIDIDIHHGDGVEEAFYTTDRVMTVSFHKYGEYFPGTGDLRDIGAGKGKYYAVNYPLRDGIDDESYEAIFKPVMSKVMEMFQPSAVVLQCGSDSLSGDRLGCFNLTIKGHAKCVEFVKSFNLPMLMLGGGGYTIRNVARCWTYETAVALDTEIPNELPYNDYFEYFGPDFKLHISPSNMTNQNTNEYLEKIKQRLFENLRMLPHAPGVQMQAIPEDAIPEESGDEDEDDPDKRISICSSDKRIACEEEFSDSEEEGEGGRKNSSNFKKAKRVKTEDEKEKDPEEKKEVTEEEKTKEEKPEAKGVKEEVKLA
Method: as §1

HDAC5 = target: T5, HDAC5 (Homo sapiens, UniProt Q9UQL6); experiment: as above; type: biochemical; conditions: recombinant human HDAC, 60 min at room temperature, 2 μM substrate
T5 construct: purchased BPS Bioscience
T5 sequence (Q9UQL6 whole entry): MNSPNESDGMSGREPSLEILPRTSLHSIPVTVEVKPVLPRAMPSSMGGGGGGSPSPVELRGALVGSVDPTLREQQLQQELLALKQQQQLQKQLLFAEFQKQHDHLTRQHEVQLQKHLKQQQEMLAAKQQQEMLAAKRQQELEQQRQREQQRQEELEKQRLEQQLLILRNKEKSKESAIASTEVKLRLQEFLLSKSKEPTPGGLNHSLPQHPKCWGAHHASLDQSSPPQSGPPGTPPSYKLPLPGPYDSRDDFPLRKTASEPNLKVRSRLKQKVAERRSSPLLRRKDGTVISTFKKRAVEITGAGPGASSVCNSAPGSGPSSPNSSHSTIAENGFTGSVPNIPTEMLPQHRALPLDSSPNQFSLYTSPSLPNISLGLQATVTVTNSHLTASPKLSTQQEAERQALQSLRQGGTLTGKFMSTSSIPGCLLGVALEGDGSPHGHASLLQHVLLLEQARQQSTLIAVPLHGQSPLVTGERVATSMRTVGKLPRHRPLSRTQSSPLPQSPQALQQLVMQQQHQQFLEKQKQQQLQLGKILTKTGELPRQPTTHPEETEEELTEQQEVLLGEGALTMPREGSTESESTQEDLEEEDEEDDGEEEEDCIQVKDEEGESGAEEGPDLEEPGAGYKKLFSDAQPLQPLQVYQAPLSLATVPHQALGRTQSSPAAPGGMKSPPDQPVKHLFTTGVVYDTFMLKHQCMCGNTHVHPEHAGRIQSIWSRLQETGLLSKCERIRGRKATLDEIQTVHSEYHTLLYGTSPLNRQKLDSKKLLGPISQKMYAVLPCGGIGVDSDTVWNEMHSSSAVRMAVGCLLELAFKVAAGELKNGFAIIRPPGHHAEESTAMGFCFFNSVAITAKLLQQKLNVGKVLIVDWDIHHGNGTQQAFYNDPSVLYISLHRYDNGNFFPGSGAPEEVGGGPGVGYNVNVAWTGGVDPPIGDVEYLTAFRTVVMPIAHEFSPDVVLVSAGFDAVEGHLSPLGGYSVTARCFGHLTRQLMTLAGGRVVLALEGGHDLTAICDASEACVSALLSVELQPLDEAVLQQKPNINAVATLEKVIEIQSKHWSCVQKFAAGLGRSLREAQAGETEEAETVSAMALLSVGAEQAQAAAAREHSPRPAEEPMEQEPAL
Method: as §1

HDAC8 = target: T6, HDAC8 (Homo sapiens, UniProt Q9BY41); experiment: as above; type: biochemical; conditions: recombinant human HDAC, 60 min at room temperature, 2 μM substrate
T6 construct: purchased BPS Bioscience
T6 sequence (Q9BY41 1-377): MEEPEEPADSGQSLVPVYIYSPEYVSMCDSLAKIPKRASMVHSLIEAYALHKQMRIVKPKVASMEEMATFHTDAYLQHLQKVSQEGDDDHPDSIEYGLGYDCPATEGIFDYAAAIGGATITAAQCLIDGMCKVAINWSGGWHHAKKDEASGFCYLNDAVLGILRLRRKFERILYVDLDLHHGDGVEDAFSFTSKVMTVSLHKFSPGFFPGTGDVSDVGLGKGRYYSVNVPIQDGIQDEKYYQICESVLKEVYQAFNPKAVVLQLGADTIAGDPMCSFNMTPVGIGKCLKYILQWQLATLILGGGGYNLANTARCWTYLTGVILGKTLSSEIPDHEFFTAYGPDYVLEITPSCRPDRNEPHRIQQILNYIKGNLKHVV
Method: as §1

HDAC6 = target: T7, HDAC6 (Homo sapiens, UniProt Q9UBN7); experiment: as above; type: biochemical; conditions: recombinant human HDAC, 60 min at room temperature, 2 μM substrate
T7 construct: purchased BPS Bioscience
T7 sequence (Q9UBN7 1-1215): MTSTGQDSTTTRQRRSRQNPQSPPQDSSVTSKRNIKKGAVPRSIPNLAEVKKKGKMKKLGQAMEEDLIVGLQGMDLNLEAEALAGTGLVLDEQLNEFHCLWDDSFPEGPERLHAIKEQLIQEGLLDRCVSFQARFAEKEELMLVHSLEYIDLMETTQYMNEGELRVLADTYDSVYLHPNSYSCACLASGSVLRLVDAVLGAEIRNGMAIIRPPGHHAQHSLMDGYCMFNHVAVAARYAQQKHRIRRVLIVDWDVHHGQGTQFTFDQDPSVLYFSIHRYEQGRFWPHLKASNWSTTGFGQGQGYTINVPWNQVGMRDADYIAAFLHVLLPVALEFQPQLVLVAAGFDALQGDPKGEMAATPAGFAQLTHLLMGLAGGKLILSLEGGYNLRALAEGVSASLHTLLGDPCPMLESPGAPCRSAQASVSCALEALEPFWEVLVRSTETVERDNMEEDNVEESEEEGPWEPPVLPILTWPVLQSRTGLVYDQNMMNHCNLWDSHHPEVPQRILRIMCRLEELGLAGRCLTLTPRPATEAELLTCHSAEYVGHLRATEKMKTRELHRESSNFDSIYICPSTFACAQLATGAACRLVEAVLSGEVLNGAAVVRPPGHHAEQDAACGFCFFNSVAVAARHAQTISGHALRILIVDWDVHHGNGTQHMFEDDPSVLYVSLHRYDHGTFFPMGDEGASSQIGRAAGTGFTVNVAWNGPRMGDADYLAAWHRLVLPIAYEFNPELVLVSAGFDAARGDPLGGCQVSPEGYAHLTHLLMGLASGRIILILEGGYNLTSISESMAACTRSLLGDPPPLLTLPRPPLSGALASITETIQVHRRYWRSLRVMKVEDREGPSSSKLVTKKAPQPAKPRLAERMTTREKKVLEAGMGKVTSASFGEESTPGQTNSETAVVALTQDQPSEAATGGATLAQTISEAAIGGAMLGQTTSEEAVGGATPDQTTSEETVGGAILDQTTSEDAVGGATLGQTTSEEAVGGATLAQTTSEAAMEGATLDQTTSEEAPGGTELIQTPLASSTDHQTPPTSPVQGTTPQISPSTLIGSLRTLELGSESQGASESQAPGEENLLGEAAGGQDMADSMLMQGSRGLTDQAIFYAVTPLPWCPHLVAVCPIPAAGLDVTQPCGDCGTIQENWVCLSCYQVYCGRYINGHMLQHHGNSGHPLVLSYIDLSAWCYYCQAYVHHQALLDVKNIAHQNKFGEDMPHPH
Method: as §1

HDAC2 = target: T8, HDAC2 (Homo sapiens, UniProt Q92769); experiment: as above; type: biochemical; conditions: recombinant human HDAC, 60 min at room temperature, 2 μM substrate
T8 construct: purchased BPS Bioscience
T8 sequence (Q92769 whole entry): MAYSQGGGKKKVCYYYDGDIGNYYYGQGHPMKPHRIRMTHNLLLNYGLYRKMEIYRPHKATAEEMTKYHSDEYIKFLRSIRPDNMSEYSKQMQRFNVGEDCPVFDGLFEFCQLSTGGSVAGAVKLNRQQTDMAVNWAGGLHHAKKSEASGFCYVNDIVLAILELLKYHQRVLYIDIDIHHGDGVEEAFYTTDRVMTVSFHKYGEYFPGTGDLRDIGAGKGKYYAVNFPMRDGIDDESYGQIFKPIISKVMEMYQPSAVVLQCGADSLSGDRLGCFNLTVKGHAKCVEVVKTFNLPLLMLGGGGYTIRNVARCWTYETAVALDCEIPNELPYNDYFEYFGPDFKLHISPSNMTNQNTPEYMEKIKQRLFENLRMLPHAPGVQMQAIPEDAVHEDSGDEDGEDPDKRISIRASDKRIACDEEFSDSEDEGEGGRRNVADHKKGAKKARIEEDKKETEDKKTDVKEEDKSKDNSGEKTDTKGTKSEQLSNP
Method: as §1

HDAC4 = target: T9, HDAC4 (Homo sapiens, UniProt P56524); experiment: as above; type: biochemical; conditions: recombinant human HDAC, 60 min at room temperature, 2 μM substrate
T9 construct: purchased BPS Bioscience
T9 sequence (P56524 whole entry): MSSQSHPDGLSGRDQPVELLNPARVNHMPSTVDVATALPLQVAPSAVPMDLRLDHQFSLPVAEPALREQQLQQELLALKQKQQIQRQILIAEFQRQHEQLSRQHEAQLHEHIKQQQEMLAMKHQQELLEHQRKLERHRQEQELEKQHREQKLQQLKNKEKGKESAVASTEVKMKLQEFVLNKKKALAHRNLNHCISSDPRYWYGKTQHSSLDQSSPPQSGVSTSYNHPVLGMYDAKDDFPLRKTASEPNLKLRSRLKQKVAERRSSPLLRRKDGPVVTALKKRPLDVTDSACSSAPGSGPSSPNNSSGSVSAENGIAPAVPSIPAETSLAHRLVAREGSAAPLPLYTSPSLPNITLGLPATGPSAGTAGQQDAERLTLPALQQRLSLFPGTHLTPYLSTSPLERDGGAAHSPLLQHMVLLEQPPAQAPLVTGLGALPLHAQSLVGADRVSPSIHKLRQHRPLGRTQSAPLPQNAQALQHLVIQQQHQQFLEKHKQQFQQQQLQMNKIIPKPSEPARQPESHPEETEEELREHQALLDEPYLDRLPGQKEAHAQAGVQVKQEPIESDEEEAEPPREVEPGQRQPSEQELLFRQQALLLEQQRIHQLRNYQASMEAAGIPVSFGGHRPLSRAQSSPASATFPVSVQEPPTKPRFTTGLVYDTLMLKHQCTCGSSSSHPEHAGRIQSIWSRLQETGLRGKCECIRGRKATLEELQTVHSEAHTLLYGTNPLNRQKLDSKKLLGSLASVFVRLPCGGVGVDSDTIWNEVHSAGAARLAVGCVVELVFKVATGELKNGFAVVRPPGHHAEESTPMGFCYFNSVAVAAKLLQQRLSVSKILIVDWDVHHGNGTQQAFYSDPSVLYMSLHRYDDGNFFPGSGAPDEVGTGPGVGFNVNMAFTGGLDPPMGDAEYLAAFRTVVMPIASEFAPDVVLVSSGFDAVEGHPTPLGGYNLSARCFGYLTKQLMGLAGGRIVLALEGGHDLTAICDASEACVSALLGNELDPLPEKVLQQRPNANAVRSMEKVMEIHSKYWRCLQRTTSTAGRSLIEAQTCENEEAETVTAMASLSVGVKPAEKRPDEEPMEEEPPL
Method: as §1

HDAC = experiment: In vivo PET imaging: blocking of whole brain uptake of the radiolabeled compound of Example 3; parameters: species or system rat; conditions: self-blocking, 5 min pretreatment with 1.0 μg-2.0 mg/kg unlabeled compound; radiotracer of Example 3
Method: Male Sprague-Dawley rats were utilized in pairs, anesthetized with inhalational isoflurane (Forane) at 3% in a carrier of 1.5-2 L/min medical oxygen and maintained at 2% isoflurane for the duration of the scan. The rats were arranged head-to-head in a Triumph Trimodality PET/CT/SPECT scanner (Gamma Medica, Northridge, Calif.). Rats were injected standard references or vehicle via a lateral tail vein catheterization at the start of Positron Emission Tomography (PET) acquisition. Dynamic PET acquisition lasted for 60 min and was followed by computed tomography (CT) for anatomic co-registration. PET data were reconstructed using a 3D-MLEM method resulting in a full width at half-maximum resolution of 1 mm. Reconstructed images were exported from the scanner in DICOM format along with an anatomic CT for rodent studies. These files were imported to PMOD (PMOD Technologies, Ltd.) and manually coregistered using six degrees of freedom.
Volumes of interest (VOIs) were drawn manually as spheres in brain regions guided by high resolution CT structural images and summed PET data, with a radius no less than 1 mm to minimize partial volume effects. Time-activity curves (TACs) were exported in terms of decay corrected activity per unit volume at specified time points with gradually increasing intervals. The TACs were expressed as percent injected dose per unit volume for analysis.
Summed PET images following injection with the ^11C radiolabeled (E)-3-(4-((((1r,3R,5S)-adamantan-1-ylmethyl)(methyl)amino)methyl)phenyl)-N-hydroxyacrylamide (Example 3) at baseline or after 5 minutes pretreatment with 0.5 or 2.0 mg/kg unlabeled (E)-3-(4-((((1 r,3R,5 S)-adamantan-1-ylmethyl) (methyl)amino)methyl)phenyl)-N-hydroxyacrylamide illustrate brain uptake and self-blocking, as shown in FIG. 1A. Whole-brain tracer uptake levels, normalized to uptake at 10 min, were altered by 10-40% in self-blocking experiments with 5 min pretreatment with 1.0 μg-2.0 mg/kg unlabeled (E)-3-(4-((((1r,3R,5S)-adamantan-1-ylmethyl) (methyl)amino)methyl)phenyl)-N-hydroxyacrylamide, as shown in FIGS. 1B and 1C. This quantification provides a means to measure occupancy of HDAC targets on the basis of blocked binding of the radiolabeled compound of Example 3.
Whole brain uptake of the radiotracer of Example 3 was measured 4 h after acute systemic treatment.

T1 sequence (Q9UKV0 whole entry): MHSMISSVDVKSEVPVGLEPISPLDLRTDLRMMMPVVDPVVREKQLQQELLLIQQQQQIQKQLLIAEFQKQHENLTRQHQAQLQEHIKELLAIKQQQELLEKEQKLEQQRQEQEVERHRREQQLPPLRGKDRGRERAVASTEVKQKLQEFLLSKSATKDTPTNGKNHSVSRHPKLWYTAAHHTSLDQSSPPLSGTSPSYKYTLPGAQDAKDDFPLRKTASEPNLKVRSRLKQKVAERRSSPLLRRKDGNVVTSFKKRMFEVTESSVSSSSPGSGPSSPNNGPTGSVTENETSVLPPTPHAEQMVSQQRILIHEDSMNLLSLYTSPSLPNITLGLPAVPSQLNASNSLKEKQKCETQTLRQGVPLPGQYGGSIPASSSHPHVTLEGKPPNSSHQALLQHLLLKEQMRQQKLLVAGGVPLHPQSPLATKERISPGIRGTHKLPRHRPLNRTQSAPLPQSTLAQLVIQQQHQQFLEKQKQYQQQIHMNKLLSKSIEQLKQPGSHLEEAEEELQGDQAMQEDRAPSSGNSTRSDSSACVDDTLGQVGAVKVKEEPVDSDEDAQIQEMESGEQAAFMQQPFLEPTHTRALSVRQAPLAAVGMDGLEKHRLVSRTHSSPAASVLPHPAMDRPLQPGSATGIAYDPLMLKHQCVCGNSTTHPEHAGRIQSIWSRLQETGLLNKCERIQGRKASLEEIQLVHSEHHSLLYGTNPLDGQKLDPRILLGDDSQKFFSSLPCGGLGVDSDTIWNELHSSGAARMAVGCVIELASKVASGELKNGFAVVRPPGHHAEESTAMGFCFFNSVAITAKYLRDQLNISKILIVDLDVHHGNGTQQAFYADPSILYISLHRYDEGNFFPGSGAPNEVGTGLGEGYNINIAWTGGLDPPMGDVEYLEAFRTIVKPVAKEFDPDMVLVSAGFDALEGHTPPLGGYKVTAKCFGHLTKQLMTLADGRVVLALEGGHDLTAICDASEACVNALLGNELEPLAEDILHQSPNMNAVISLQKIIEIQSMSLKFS

| Compound | IC50 (HDAC9) [nM] | IC50 (HDAC3) [nM] | IC50 (HDAC7) [nM] | IC50 (HDAC1) [nM] | IC50 (HDAC5) [nM] | IC50 (HDAC8) [nM] | IC50 (HDAC6) [nM] | IC50 (HDAC2) [nM] | IC50 (HDAC4) [nM] | Whole-brain tracer uptake levels, normalized to uptake at 10 min, altered by (HDAC) |
| --- | --- | --- | --- | --- | --- | --- | --- | --- | --- | --- |
| O=C(/C=C/c1ccc(CN(CCF)CC23CC4CC(CC(C4)C2)C3)cc1)NO | > 30000 | 470 | > 30000 | 222 | > 5000 | > 30000 | 308 | 651 | > 12000 |  |
| O=C(/C=C/c1ccc(CNCC23CC4CC(CC(C4)C2)C3)c(F)c1)NO | > 50000 | 0.5 | > 70000 | 0.8 | 4310 | > 5000 | > 40000 | 6.4 | > 70000 |  |
| CN(Cc1ccc(/C=C/C(=O)NO)cc1)CC12CC3CC(CC(C3)C1)C2 [Example 1, (E)-3-(4-((((1r,3R,5S)-adamantan-1-ylmethyl)(methyl)amino)methyl)phenyl)-N-hydroxyacrylamide] |  |  |  |  |  |  |  |  |  | 10-40% |
| CN(Cc1ccc(/C=C/C(=O)Nc2ccccc2N)cc1)CC12CC3CC(CC(C3)C1)C2 [drawing 61] |  | 216 | > 40000 | 149 | > 40000 | > 40000 | > 10000 | 602 |  |  |

From patent US20170349540A1, “HISTONE DEACETYLASE INHIBITORS” (The General Hospital Corporation, priority 2014, published 2017)
